Where a name gives a salt, the structure may show the parent alone.
These compounds were tested against human Kv1.5 channels (Homo sapiens (Human), UniProt P22460) (assay: Measurement of human Kv1.5 channel current by whole-cell patch clamp method (human Kv1.5-expressing CHO-K1 cell line), Pharmacological Test 1). Conditions: First Invention, Table 2, human Kv1.5-expressing CHO-K1 cells, step end current at +40 mV.
Format: cell-based
Description: Pharmacological Test 1 (1) Production of Human Kv1.5-Expressing CHO-K1 Cell Lines
CHO-K1 cell lines stably expressing human Kv1.5 channels were prepared in the following manner.
Full-length human Kv1.5 cDNA was cloned from a human heart cDNA library (produced by Stratagene). The obtained human Kv1.5 sequence corresponds to the sequence described in FASEB J. 5, 331-337 (1991).
The obtained human Kv1.5 cDNA was inserted into a plasmid encoding a CMV promoter and a G418 resistance marker to produce a Kv1.5 expression vector. The human Kv1.5 expression vector was transfected into CHO-K1 cells by the lipofectamine method. After culturing the cells in an F-12 medium (produced by Invitrogen Corp.) containing 10% FBS (produced by Invitrogen Corp.) for 3 or 4 days, the medium was replaced with a FBS-containing F-12 medium that included 1,000 μg/ml of G418 (produced by Invitrogen Corp.), and single colonies were isolated. The amount of Kv1.5 channel expression in the single colonies was quantified at the mRNA level by RT-PCR and then quantified at the protein level by western blotting. Finally, the expressed current was analyzed by patch clamp method. […]
Depolarizing stimulation pulses were applied and ionic current was recorded by using a patch clamp amplifier (EPC-7 or EPC-7 PLUS, produced by HEKA) and a personal computer (manufactured by IBM Corp.) in which software for data acquisition and analysis of ion channel current (PULSE 8.77, produced by HEKA) was installed. The current was measured in the whole-cell configuration of the patch-clamp technique. […] Subsequently, the series resistance (Rs) between the pipette and the interior of the cell was measured and corrected. […]
While the membrane potential was holded at −80 mV, depolarizing pulses (−80 mV for 0.05 seconds→□□+40 mV for 0.2 seconds →□□−40 mV for 0.2 seconds→□□−80 mV for 0.05 seconds) were applied at a stimulation frequency of 1 Hz to measure Kv1.5 channel current. […] The current obtained during the pulse application was recorded as a current in the absence of the test compounds. […]

Chain of human Kv1.5 channels (P22460 whole entry): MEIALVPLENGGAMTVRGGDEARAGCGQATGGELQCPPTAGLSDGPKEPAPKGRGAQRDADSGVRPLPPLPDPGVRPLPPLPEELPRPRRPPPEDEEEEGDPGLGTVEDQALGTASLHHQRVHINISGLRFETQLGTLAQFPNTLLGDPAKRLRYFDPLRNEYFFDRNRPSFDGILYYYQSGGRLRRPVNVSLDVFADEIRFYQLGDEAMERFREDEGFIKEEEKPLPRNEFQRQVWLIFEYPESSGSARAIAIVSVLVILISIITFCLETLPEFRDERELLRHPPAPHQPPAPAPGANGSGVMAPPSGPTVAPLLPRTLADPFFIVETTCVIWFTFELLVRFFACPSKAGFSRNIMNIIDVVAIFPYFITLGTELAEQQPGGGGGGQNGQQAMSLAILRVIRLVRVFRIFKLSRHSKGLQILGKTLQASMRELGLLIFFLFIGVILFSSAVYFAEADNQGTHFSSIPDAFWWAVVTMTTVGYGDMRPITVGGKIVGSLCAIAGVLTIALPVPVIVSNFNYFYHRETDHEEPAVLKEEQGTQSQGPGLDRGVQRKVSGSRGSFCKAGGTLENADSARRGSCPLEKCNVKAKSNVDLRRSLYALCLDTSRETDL

Compound	IC50
CCN1C(=O)C(C)(C)C(=O)N(C)c2cc(CN(CCc3cccnc3)C(=O)Cc3cn(C)c4ccccc34)ccc21 [Example 330, N-(1-Ethyl-3,3,5-trimethyl-2,4-dioxo-2,3,4,5-tetrahydro-1H-benzo[b][1,4]diazepin-7-ylmethyl)-2-(1-methyl-1H-indol-3-yl)-N-(2-pyridin-3-ylethyl)acetamide hydrochloride]	860 nM
CCN1C(=O)C(C)(C)C(=O)N(C)c2cc(CN(CCn3ccc4oc(C)cc4c3=O)Cc3cccnc3COC)ccc21 [Example 317, 1-Ethyl-7-({N-(2-methoxymethylpyridin-3-ylmethyl)-N-[2-(2-methyl-4-oxo-4H-furo[3,2-c]pyridin-5-yl)ethyl]amino}methyl)-3,3,5-trimethyl-1,5-dihydrobenzo[b][1,4]diazepine-2,4-dione]	630 nM
CCN1C(=O)C(C)(C)C(=O)N(C)c2cc(CN(CCn3cc(C)c4occc4c3=O)Cc3cccnc3COC)ccc21 [Example 318, 1-Ethyl-7-({N-(2-methoxymethylpyridin-3-ylmethyl)-N-[2-(7-methyl-4-oxo-4H-furo[3,2-c]pyridin-5-yl)ethyl]amino}methyl)-3,3,5-trimethyl-1,5-dihydrobenzo[b][1,4]diazepine-2,4-dione]	2900 nM

Reference: patent publication US9212187B2, “Nitrogen-containing compounds and pharmaceutical compositions thereof for the treatment of atrial fibrillation” (OTSUKA PHARMACEUTICAL CO., LTD., priority 2009, dated 2015)
